From US20240238242A1, “EGCG buccal tablet and use thereof” (priority 2023, published 2024)
Where “and” joins values, the source holds several entries; their conditions need not be identical. Identical values can stand only once. Like-named read-outs stand apart in the source and are kept apart here.

System: Influenza A H1N1 virus (H1N1-PR8)
Format: cell-based
Conditions: for average inactivation efficiency against virus: three experiments; for inactivation efficiency against the virus: single experiment
[1] = 0.2 mM EGCG, PR8 virus, 5 minutes
[2] = 1 mM EGCG, PR8 virus, 5 minutes
[3] = 5 mM EGCG, PR8 virus, 5 minutes

O=C(O[C@@H]1Cc2c(O)cc(O)cc2O[C@@H]1c1cc(O)c(O)c(O)c1)c1cc(O)c(O)c(O)c1 [EGCG, Epigallocatechin gallate]
99.92% and 99.75% and 99.60%: inactivation efficiency against the virus [3]
10^4 TCID50/50 μL: residual virus titer of EGCG+virus group (Karber method) [3]
87.19%: average inactivation efficiency against virus [2]
− and +: CPE test, virus replication in cell wells (wells 1-10) (0.2 mM EGCG + PR8 virus, 5 minutes, third experiment, dilution factor 10^6) | CPE test (virus replication in the cell wells) (0.2 mM EGCG + PR8 virus, co-incubated 1 minute, third experiment, dilution factor 10^7, wells 1-10) | CPE test (virus replication in the cell wells) (0.2 mM EGCG + virus, PR8, 1 minute, first experiment, dilution factor 10^6, wells 1-10) | CPE test (virus replication in the cell wells) (0.2 mM EGCG + virus, PR8, 1 minute, first experiment, dilution factor 10^7, wells 1-10) | CPE test, virus replication in cell wells (wells 1-10) (1 mM EGCG + PR8 virus, 5 minutes, third experiment, dilution factor 10^6) | CPE test (virus replication in the cell wells) (1 mM EGCG + PR8 virus, co-incubated 1 minute, third experiment, dilution factor 10^6, wells 1-10) | CPE test (virus replication in the cell wells) (1 mM EGCG + virus, PR8, 1 minute, second experiment, dilution factor 10^6, wells 1-10) | CPE test, virus replication in cell wells (wells 1-10) (5 mM EGCG + PR8 virus, 5 minutes, third experiment, dilution factor 10^5) | CPE test (virus replication in the cell wells) (5 mM EGCG + PR8 virus, co-incubated 1 minute, third experiment, dilution factor 10^6, wells 1-10) | CPE test (virus replication in the cell wells) (5 mM EGCG + virus, PR8, 1 minute, first experiment, dilution factor 10^5, wells 1-10) | CPE test (virus replication in the cell wells) (5 mM EGCG + virus, PR8, 1 minute, second experiment, dilution factor 10^4, wells 1-10) | CPE test (virus replication in the cell wells) (5 mM EGCG + virus, PR8, 1 minute, second experiment, dilution factor 10^5, wells 1-10)
97.60%: average inactivation efficiency against virus (5 mM EGCG, PR8 virus, 1 minute)
49.88%: average inactivation efficiency against virus (0.2 mM EGCG, PR8 virus, 1 minute)
82.50%: average inactivation efficiency against virus (1 mM EGCG, PR8 virus, 1 minute)
−: CPE test, virus replication in cell wells (wells 1-10) (0.2 mM EGCG + PR8 virus, 5 minutes, third experiment, dilution factor 10^7) | CPE test, virus replication in cell wells (wells 1-10) (0.2 mM EGCG + PR8 virus, 5 minutes, third experiment, dilution factor 10^8) | CPE test (virus replication in the cell wells) (0.2 mM EGCG + PR8 virus, co-incubated 1 minute, third experiment, dilution factor 10^8, wells 1-10) | CPE test (virus replication in the cell wells) (0.2 mM EGCG + virus, PR8, 1 minute, first experiment, dilution factor 10^8, wells 1-10) | CPE test (virus replication in the cell wells) (0.2 mM EGCG + virus, PR8, 1 minute, second experiment, dilution factor 10^7, wells 1-10) | CPE test (virus replication in the cell wells) (0.2 mM EGCG + virus, PR8, 1 minute, second experiment, dilution factor 10^8, wells 1-10) | CPE test, virus replication in cell wells (wells 1-10) (1 mM EGCG + PR8 virus, 5 minutes, third experiment, dilution factor 10^7) | CPE test, virus replication in cell wells (wells 1-10) (1 mM EGCG + PR8 virus, 5 minutes, third experiment, dilution factor 10^8) | CPE test (virus replication in the cell wells) (1 mM EGCG + PR8 virus, co-incubated 1 minute, third experiment, dilution factor 10^7, wells 1-10) | CPE test (virus replication in the cell wells) (1 mM EGCG + PR8 virus, co-incubated 1 minute, third experiment, dilution factor 10^8, wells 1-10) | CPE test (virus replication in the cell wells) (1 mM EGCG + virus, PR8, 1 minute, first experiment, dilution factor 10^7, wells 1-10) | CPE test (virus replication in the cell wells) (1 mM EGCG + virus, PR8, 1 minute, first experiment, dilution factor 10^8, wells 1-10) | CPE test (virus replication in the cell wells) (1 mM EGCG + virus, PR8, 1 minute, second experiment, dilution factor 10^7, wells 1-10) | CPE test (virus replication in the cell wells) (1 mM EGCG + virus, PR8, 1 minute, second experiment, dilution factor 10^8, wells 1-10) | CPE test, virus replication in cell wells (wells 1-10) (5 mM EGCG + PR8 virus, 5 minutes, third experiment, dilution factor 10^6) | CPE test, virus replication in cell wells (wells 1-10) (5 mM EGCG + PR8 virus, 5 minutes, third experiment, dilution factor 10^7) | CPE test, virus replication in cell wells (wells 1-10) (5 mM EGCG + PR8 virus, 5 minutes, third experiment, dilution factor 10^8) | CPE test (virus replication in the cell wells) (5 mM EGCG + PR8 virus, co-incubated 1 minute, third experiment, dilution factor 10^7, wells 1-10) | CPE test (virus replication in the cell wells) (5 mM EGCG + PR8 virus, co-incubated 1 minute, third experiment, dilution factor 10^8, wells 1-10) | CPE test (virus replication in the cell wells) (5 mM EGCG + PR8 virus, co-incubated 5 minutes, first experiment, dilution factor 10^4, wells 1-10) | CPE test (virus replication in the cell wells) (5 mM EGCG + PR8 virus, co-incubated 5 minutes, first experiment, dilution factor 10^5, wells 1-10) | CPE test (virus replication in the cell wells) (5 mM EGCG + PR8 virus, co-incubated 5 minutes, first experiment, dilution factor 10^6, wells 1-10) | CPE test (virus replication in the cell wells) (5 mM EGCG + PR8 virus, co-incubated 5 minutes, first experiment, dilution factor 10^7, wells 1-10) | CPE test (virus replication in the cell wells) (5 mM EGCG + PR8 virus, co-incubated 5 minutes, first experiment, dilution factor 10^8, wells 1-10) | CPE test (virus replication in the cell wells) (5 mM EGCG + virus, PR8, 1 minute, first experiment, dilution factor 10^6, wells 1-10) | CPE test (virus replication in the cell wells) (5 mM EGCG + virus, PR8, 1 minute, first experiment, dilution factor 10^7, wells 1-10) | CPE test (virus replication in the cell wells) (5 mM EGCG + virus, PR8, 1 minute, first experiment, dilution factor 10^8, wells 1-10) | CPE test (virus replication in the cell wells) (5 mM EGCG + virus, PR8, 1 minute, second experiment, dilution factor 10^6, wells 1-10) | CPE test (virus replication in the cell wells) (5 mM EGCG + virus, PR8, 1 minute, second experiment, dilution factor 10^7, wells 1-10) | CPE test (virus replication in the cell wells) (5 mM EGCG + virus, PR8, 1 minute, second experiment, dilution factor 10^8, wells 1-10)
99.76%: average inactivation efficiency against virus [3]
99.50% and 99.60% and 93.69%: inactivation efficiency against the virus (5 mM EGCG, PR8 virus, 1 minute)
+ and −: CPE test (virus replication in the cell wells) (0.2 mM EGCG + PR8 virus, co-incubated 1 minute, third experiment, dilution factor 10^6, wells 1-10) | CPE test (virus replication in the cell wells) (0.2 mM EGCG + virus, PR8, 1 minute, second experiment, dilution factor 10^6, wells 1-10) | CPE test (virus replication in the cell wells) (1 mM EGCG + PR8 virus, co-incubated 1 minute, third experiment, dilution factor 10^5, wells 1-10) | CPE test (virus replication in the cell wells) (1 mM EGCG + virus, PR8, 1 minute, first experiment, dilution factor 10^6, wells 1-10) | CPE test, virus replication in cell wells (wells 1-10) (5 mM EGCG + PR8 virus, 5 minutes, third experiment, dilution factor 10^4) | CPE test (virus replication in the cell wells) (5 mM EGCG + PR8 virus, co-incubated 1 minute, third experiment, dilution factor 10^5, wells 1-10) | CPE test (virus replication in the cell wells) (5 mM EGCG + virus, PR8, 1 minute, first experiment, dilution factor 10^4, wells 1-10)
87.41% and 84.15% and 90.00%: inactivation efficiency against the virus [2]
84.15%: inactivation efficiency against the virus [1]
+: CPE test, virus replication in cell wells (wells 1-10) (0.2 mM EGCG + PR8 virus, 5 minutes, third experiment, dilution factor 10^1) | CPE test, virus replication in cell wells (wells 1-10) (0.2 mM EGCG + PR8 virus, 5 minutes, third experiment, dilution factor 10^2) | CPE test, virus replication in cell wells (wells 1-10) (0.2 mM EGCG + PR8 virus, 5 minutes, third experiment, dilution factor 10^3) | CPE test, virus replication in cell wells (wells 1-10) (0.2 mM EGCG + PR8 virus, 5 minutes, third experiment, dilution factor 10^4) | CPE test, virus replication in cell wells (wells 1-10) (0.2 mM EGCG + PR8 virus, 5 minutes, third experiment, dilution factor 10^5) | CPE test (virus replication in the cell wells) (0.2 mM EGCG + PR8 virus, co-incubated 1 minute, third experiment, dilution factor 10^1, wells 1-10) | CPE test (virus replication in the cell wells) (0.2 mM EGCG + PR8 virus, co-incubated 1 minute, third experiment, dilution factor 10^2, wells 1-10) | CPE test (virus replication in the cell wells) (0.2 mM EGCG + PR8 virus, co-incubated 1 minute, third experiment, dilution factor 10^3, wells 1-10) | CPE test (virus replication in the cell wells) (0.2 mM EGCG + PR8 virus, co-incubated 1 minute, third experiment, dilution factor 10^4, wells 1-10) | CPE test (virus replication in the cell wells) (0.2 mM EGCG + PR8 virus, co-incubated 1 minute, third experiment, dilution factor 10^5, wells 1-10) | CPE test (virus replication in the cell wells) (0.2 mM EGCG + virus, PR8, 1 minute, first experiment, dilution factor 10^1, wells 1-10) | CPE test (virus replication in the cell wells) (0.2 mM EGCG + virus, PR8, 1 minute, first experiment, dilution factor 10^2, wells 1-10) | CPE test (virus replication in the cell wells) (0.2 mM EGCG + virus, PR8, 1 minute, first experiment, dilution factor 10^3, wells 1-10) | CPE test (virus replication in the cell wells) (0.2 mM EGCG + virus, PR8, 1 minute, first experiment, dilution factor 10^4, wells 1-10) | CPE test (virus replication in the cell wells) (0.2 mM EGCG + virus, PR8, 1 minute, first experiment, dilution factor 10^5, wells 1-10) | CPE test (virus replication in the cell wells) (0.2 mM EGCG + virus, PR8, 1 minute, second experiment, dilution factor 10^1, wells 1-10) | CPE test (virus replication in the cell wells) (0.2 mM EGCG + virus, PR8, 1 minute, second experiment, dilution factor 10^2, wells 1-10) | CPE test (virus replication in the cell wells) (0.2 mM EGCG + virus, PR8, 1 minute, second experiment, dilution factor 10^3, wells 1-10) | CPE test (virus replication in the cell wells) (0.2 mM EGCG + virus, PR8, 1 minute, second experiment, dilution factor 10^4, wells 1-10) | CPE test (virus replication in the cell wells) (0.2 mM EGCG + virus, PR8, 1 minute, second experiment, dilution factor 10^5, wells 1-10) | CPE test, virus replication in cell wells (wells 1-10) (1 mM EGCG + PR8 virus, 5 minutes, third experiment, dilution factor 10^3) | CPE test, virus replication in cell wells (wells 1-10) (1 mM EGCG + PR8 virus, 5 minutes, third experiment, dilution factor 10^4) | CPE test, virus replication in cell wells (wells 1-10) (1 mM EGCG + PR8 virus, 5 minutes, third experiment, dilution factor 10^5) | CPE test (virus replication in the cell wells) (1 mM EGCG + PR8 virus, co-incubated 1 minute, third experiment, dilution factor 10^3, wells 1-10) | CPE test (virus replication in the cell wells) (1 mM EGCG + PR8 virus, co-incubated 1 minute, third experiment, dilution factor 10^4, wells 1-10) | CPE test (virus replication in the cell wells) (1 mM EGCG + PR8 virus, co-incubated 5 minutes, first experiment, dilution factor 10^3, wells 1-10) | CPE test (virus replication in the cell wells) (1 mM EGCG + PR8 virus, co-incubated 5 minutes, first experiment, dilution factor 10^4, wells 1-10) | CPE test (virus replication in the cell wells) (1 mM EGCG + PR8 virus, co-incubated 5 minutes, first experiment, dilution factor 10^5, wells 1-10) | CPE test (virus replication in the cell wells) (1 mM EGCG + virus, PR8, 1 minute, first experiment, dilution factor 10^3, wells 1-10) | CPE test (virus replication in the cell wells) (1 mM EGCG + virus, PR8, 1 minute, first experiment, dilution factor 10^4, wells 1-10) | CPE test (virus replication in the cell wells) (1 mM EGCG + virus, PR8, 1 minute, first experiment, dilution factor 10^5, wells 1-10) | CPE test (virus replication in the cell wells) (1 mM EGCG + virus, PR8, 1 minute, second experiment, dilution factor 10^1, wells 1-10) | CPE test (virus replication in the cell wells) (1 mM EGCG + virus, PR8, 1 minute, second experiment, dilution factor 10^2, wells 1-10) | CPE test (virus replication in the cell wells) (1 mM EGCG + virus, PR8, 1 minute, second experiment, dilution factor 10^3, wells 1-10) | CPE test (virus replication in the cell wells) (1 mM EGCG + virus, PR8, 1 minute, second experiment, dilution factor 10^4, wells 1-10) | CPE test (virus replication in the cell wells) (1 mM EGCG + virus, PR8, 1 minute, second experiment, dilution factor 10^5, wells 1-10) | CPE test (virus replication in the cell wells) (5 mM EGCG + PR8 virus, co-incubated 1 minute, third experiment, dilution factor 10^4, wells 1-10)
87.41% and 80.05%: inactivation efficiency against the virus (1 mM EGCG, PR8 virus, 1 minute)
70.91%: average inactivation efficiency against virus [1]
